In brackets after ≈: the same amount, converted by molar mass.
Columns and labels:
[1] = tested on: Mycobacterium tuberculosis; test: Antimycobacterial activity against Mycobacterium tuberculosis H37Rv ATCC 27294 assessed as reduction in bacterial growth by microplate alamar blue assay; format: functional
Mycobacterium avium = test: Antimycobacterial activity against Mycobacterium avium assessed as reduction in bacterial growth; format: functional
[2] = tested on: Mycobacteroides abscessus; test: Antimycobacterial activity against Mycobacterium abscessus ATCC 19977 assessed as reduction in bacterial growth by microplate Alamar blue assay; format: functional
[3] = Selectivity index, ratio of IC50 for cytotoxicity against African green monkey Vero cells to MIC for antimycobacterial activity against Mycobacterium tuberculosis H37Rv ATCC 27294; format: toxicity, cell-based; details: read-out: Selectivity Index
[4] = Cytotoxicity against African green monkey Vero cells; format: toxicity, cell-based; details: African green monkey (Chlorocebus sabaeus)
[5] = Binding affinity to full length Mycobacterium tuberculosis ClpC1 assessed as dissociation constant by SPR analysis
[6] = Binding affinity to N-terminal Mycobacterium tuberculosis ClpC1 assessed as dissociation constant by SPR analysis

SMILES	MIC [1] [µM]	MIC (Mycobacterium avium) [µM]	MIC [2] [µM]	selectivity ratio [3]	IC50 [4] [nM]	Kd [5] [nM]	Kd [6] [nM]
C/C=C/C[C@@H]1NC(=O)[C@H](CC(C)C)N2C=C(C)C[C@@H](C2=O)N(C)C(=O)[C@H](C)NC(=O)[C@H](Cc2ccc(OC)c([N+](=O)[O-])c2)NC(=O)[C@H](CC(C)C)N(C)C(=O)[C@H](Cc2cn(C(C)(C)[C@H]3CO3)c3ccccc23)NC1=O	0.073 (≈ 0.0758 µg/mL)	> 10	2.3 (≈ 2.39 µg/mL)	1300	98000	–	–
C/C=C/C[C@@H]1NC(=O)[C@H](CC(C)C)N2C=C(C)C[C@@H](C2=O)N(C)C(=O)[C@H](C)NC(=O)[C@H](Cc2ccc(O)c(N)c2)NC(=O)[C@H](CC(C)C)N(C)C(=O)[C@H](Cc2cn(C(C)(C)[C@H](O)CCl)c3ccccc23)NC1=O	0.89 (≈ 0.917 µg/mL)	> 10	8.3 (≈ 8.55 µg/mL)	> 110	> 100000	–	–
C/C=C/C[C@@H]1NC(=O)[C@H](CC(C)C)N2C(=O)[C@H](CC(C)[C@H]2OC)N(C)C(=O)[C@H](C)NC(=O)[C@H](Cc2ccc(O)c([N+](=O)[O-])c2)NC(=O)[C@H](CC(C)C)N(C)C(=O)[C@H](Cc2cn(C(C)(C)[C@H](O)COC)c3ccccc23)NC1=O (some centres undefined)	0.008 (≈ 0.00871 µg/mL)	0.4 (≈ 0.435 µg/mL)	0.11 (≈ 0.12 µg/mL)	> 13000	> 100000	72	75
C/C=C/C[C@@H]1NC(=O)[C@H](CC(C)C)N2C(=O)[C@H](C[C@@H](C)[C@H]2OCCCC)N(C)C(=O)[C@H](C)NC(=O)[C@H](Cc2ccc(O)c([N+](=O)[O-])c2)NC(=O)[C@H](CC(C)C)N(C)C(=O)[C@H](Cc2cn(C(C)(C)[C@H](O)CCl)c3ccccc23)NC1=O	4.3 (≈ 4.88 µg/mL)	–	> 10	–	> 100000	170	210
C/C=C/C[C@@H]1NC(=O)[C@H](CC(C)C)N2C(=O)[C@H](CC(C)[C@H]2OC)N(C)C(=O)[C@H](C)NC(=O)[C@H](Cc2ccc(OC)c([N+](=O)[O-])c2)NC(=O)[C@H](CC(C)C)N(C)C(=O)[C@H](Cc2cn(C(C)(C)[C@H]3CO3)c3ccccc23)N(C)C1=O (some centres undefined)	0.065 (≈ 0.0705 µg/mL)	9 (≈ 9.76 µg/mL)	2.1 (≈ 2.28 µg/mL)	1400	90000	–	–
C/C=C/C[C@@H]1NC(=O)[C@H](CC(C)C)N2C(=O)[C@H](CC(C)[C@H]2OC)N(C)C(=O)[C@H](C)NC(=O)[C@H](Cc2ccc(O)c([N+](=O)[O-])c2)NC(=O)[C@H](CC(C)C)N(C)C(=O)[C@H](Cc2cn(C(C)(C)[C@H]3CO3)c3ccccc23)NC1=O (some centres undefined)	0.002 (≈ 0.00211 µg/mL)	1.4 (≈ 1.48 µg/mL)	0.15 (≈ 0.158 µg/mL)	> 53000	> 100000	–	–
C/C=C/C[C@@H]1NC(=O)[C@H](CC(C)C)N2C(=O)[C@H](C[C@H](C)[C@@H]2OCCCC)N(C)C(=O)[C@H](C)NC(=O)[C@H](Cc2ccc(O)c([N+](=O)[O-])c2)NC(=O)[C@H](CC(C)C)N(C)C(=O)[C@H](Cc2cn(C(C)(C)[C@H](O)CCl)c3ccccc23)NC1=O	0.048 (≈ 0.0545 µg/mL)	–	4.2 (≈ 4.77 µg/mL)	> 2100	> 100000	29	27
C/C=C/C[C@@H]1NC(=O)[C@H](CC(C)C)N2C=C(C)C[C@@H](C2=O)N(C)C(=O)[C@H](C)NC(=O)[C@H](Cc2ccc3c(c2)N=C(C)CC(C)(C)O3)NC(=O)[C@H](CC(C)C)N(C)C(=O)[C@H](Cc2cn(C(C)(C)[C@H](O)CCl)c3ccccc23)NC1=O	0.79 (≈ 0.878 µg/mL)	> 10	4.5 (≈ 5 µg/mL)	> 130	> 100000	–	–
C/C=C/C[C@@H]1NC(=O)[C@H](CC(C)C)N2C(=O)[C@H](CC(C)[C@H]2OC(C)=O)N(C)C(=O)[C@H](C)NC(=O)[C@H](Cc2ccc(OC(C)=O)c([N+](=O)[O-])c2)NC(=O)[C@H](CC(C)C)N(C)C(=O)[C@H](Cc2cn(C(C)(C)[C@H]3CO3)c3ccccc23)NC1=O (some centres undefined)	0.004 (≈ 0.00451 µg/mL)	0.96 (≈ 1.08 µg/mL)	0.27 (≈ 0.304 µg/mL)	> 23000	> 100000	16	–
C/C=C/C[C@@H]1NC(=O)[C@H](CC(C)C)N2C(=O)[C@H](CC(C)[C@H]2OCCC)N(C)C(=O)[C@H](C)NC(=O)[C@H](Cc2ccc(O)c([N+](=O)[O-])c2)NC(=O)[C@H](CC(C)C)N(C)C(=O)[C@H](Cc2cn(C(C)(C)[C@H](O)CCl)c3ccccc23)NC1=O (some centres undefined)	0.75 (≈ 0.841 µg/mL)	> 10	2.1 (≈ 2.35 µg/mL)	> 13	> 10000	–	–
C/C=C/C[C@@H]1NC(=O)[C@H](CC(C)C)N2C(=O)[C@H](CC(C)[C@H]2OC)N(C)C(=O)[C@H](C)NC(=O)[C@H](Cc2ccc(OC)c([N+](=O)[O-])c2)NC(=O)[C@H](CC(C)C)N(C)C(=O)[C@H](Cc2cn(C(C)(C)[C@H]3CO3)c3ccccc23)NC1=O (some centres undefined)	0.006 (≈ 0.00642 µg/mL)	1.2 (≈ 1.28 µg/mL)	0.53 (≈ 0.567 µg/mL)	17000	100000	64	–
C/C=C/C[C@@H]1NC(=O)[C@H](CC(C)C)N2C=C(C)C[C@@H](C2=O)N(C)C(=O)[C@H](C)NC(=O)[C@H](Cc2ccc(OC(C)=O)c([N+](=O)[O-])c2)NC(=O)[C@H](CC(C)C)N(C)C(=O)[C@H](Cc2cn(C(C)(C)[C@H](O)CCl)c3ccccc23)NC1=O	0.022 (≈ 0.0243 µg/mL)	5.8 (≈ 6.4 µg/mL)	1.1 (≈ 1.21 µg/mL)	> 4500	> 100000	–	–
C/C=C/C[C@@H]1NC(=O)[C@H](CC(C)C)N2C=C(C)C[C@@H](C2=O)N(C)C(=O)[C@H](C)NC(=O)[C@H](Cc2ccc(OC(=O)c3ccccc3)c([N+](=O)[O-])c2)NC(=O)[C@H](CC(C)C)N(C)C(=O)[C@H](Cc2cn(C(C)(C)[C@H](O)CCl)c3ccccc23)NC1=O	0.052 (≈ 0.0606 µg/mL)	> 10	2 (≈ 2.33 µg/mL)	> 1900	> 100000	–	–
C/C=C/C[C@@H]1NC(=O)[C@H](CC(C)C)N2C(=O)[C@H](C[C@H](C)[C@H]2OCC)N(C)C(=O)[C@H](C)NC(=O)[C@H](Cc2ccc(O)c([N+](=O)[O-])c2)NC(=O)[C@H](CC(C)C)N(C)C(=O)[C@H](Cc2cn(C(C)(C)[C@H](O)CCl)c3ccccc23)NC1=O	0.005 (≈ 0.00553 µg/mL)	2.2 (≈ 2.43 µg/mL)	0.49 (≈ 0.542 µg/mL)	> 19000	> 100000	87	11
C/C=C/C[C@@H]1NC(=O)[C@H](CC(C)C)N2C=C(C)C[C@@H](C2=O)N(C)C(=O)[C@H](C)NC(=O)[C@H](Cc2ccc(O)c([N+](=O)[O-])c2)NC(=O)[C@H](CC(C)C)N(C)C(=O)[C@H](Cc2cn(C(C)(C)[C@H](O)CCl)c3ccccc23)NC1=O	0.019 (≈ 0.0202 µg/mL)	4.8 (≈ 5.09 µg/mL)	1.1 (≈ 1.17 µg/mL)	–	> 100000	–	–
C/C=C/C[C@@H]1NC(=O)[C@H](CC(C)C)N2C(=O)[C@H](CC(C)[C@H]2OC)N(C)C(=O)[C@H](C)NC(=O)[C@H](Cc2ccc(O)c([N+](=O)[O-])c2)NC(=O)[C@H](CC(C)C)N(C)C(=O)[C@H](Cc2cn(C(C)(C)[C@H](O)CCl)c3ccccc23)NC1=O (some centres undefined)	0.005 (≈ 0.00546 µg/mL)	0.4 (≈ 0.437 µg/mL)	0.25 (≈ 0.273 µg/mL)	> 20000	> 100000	96	66
C/C=C/C[C@@H]1NC(=O)[C@H](CC(C)C)N2C(=O)[C@H](CC(C)[C@H]2O)N(C)C(=O)[C@H](C)NC(=O)[C@H](Cc2ccc(O)c([N+](=O)[O-])c2)NC(=O)[C@H](CC(C)C)N(C)C(=O)[C@H](Cc2cn(C(C)(C)[C@H]3CO3)c3ccccc23)NC1=O (mixture of isomers)	0.019	1.2	0.29	–	–	110	83
C/C=C/C[C@@H]1NC(=O)[C@H](CC(C)C)N2C(=O)[C@H](CC(C)[C@H]2O)N(C)C(=O)[C@H](C)NC(=O)[C@H](Cc2ccc(OC(C)=O)c([N+](=O)[O-])c2)NC(=O)[C@H](CC(C)C)N(C)C(=O)[C@H](Cc2cn(C(C)(C)[C@H]3CO3)c3ccccc23)NC1=O (mixture of isomers)	–	–	–	11000	–	–	–
NNC(=O)c1ccncc1 [ISONIAZID]	0.46 (≈ 0.0631 µg/mL)	–	> 8	–	–	–	–
CO[C@H]1/C=C/O[C@@]2(C)Oc3c(C)c(O)c4c(O)c(c(/C=N/N5CCN(C)CC5)c(O)c4c3C2=O)NC(=O)/C(C)=C\C=C\[C@H](C)[C@H](O)[C@@H](C)[C@@H](O)[C@@H](C)[C@H](OC(C)=O)[C@@H]1C [RIFAMPIN]	0.03 (≈ 0.0247 µg/mL)	–	> 4	–	> 122000	–	–

Reference: ChEMBL document CHEMBL6177961, “Structure-Based Analysis of Semisynthetic Anti-TB Rufomycin Analogues” (J Nat Prod, 2025)
